Assay results from patent US5886027A, “Fungicidal compounds” (BTG International Limited, priority 1995, dated 1999).
Values after ≈ are worked out from the molar mass of the structure shown.

Legend:
[1] = Jacobsen and Wengel, Pestic. Sci., 1986, 17, 686-690; cited from earlier work
Fusarium graminearum = assay: microbe, parasite or virus in culture; type: cell-based
[2] = tested on: Pseudocercosporella herpotrichoides; assay: microbe, parasite or virus in culture; type: cell-based, Pseudocercosporella herpotrichoides (eyespot)
Botrytis cinerea = assay: microbe, parasite or virus in culture; type: cell-based, Botrytis cinerea (grey mould)
[3] = tested on: Pseudocercosporella herpotrichoides; assay: Further in vitro assay, W-type and R-type isolates of Pseudocercosporella herpotrichoides; type: cell-based
Pyricularia oryzae = assay: microbe, parasite or virus in culture; type: cell-based
Rhizoctonia solani = assay: microbe, parasite or virus in culture; type: cell-based
Aspergillus niger = assay: microbe, parasite or virus in culture; type: cell-based
[4] = tested on: Erysiphe graminis f.sp hordei; set-up: species or system Erysiphe graminis f.sp hordei (barley powdery mildew); conditions: in vivo
Neurospora crassa = assay: microbe, parasite or virus in culture; type: cell-based
14 day old seedlings = assay: Phytotoxic effects on sprayed 14 day old seedlings; type: in vivo, barley; conditions: dosage levels below those currently used for triazole fungicides
Fusarium sulphureum = assay: Further in vitro assay, isolates of Fusarium sulphureum; type: cell-based; conditions: F. sulphureum, Table 2(f)
Ustilago maydis = assay: microbe, parasite or virus in culture; type: cell-based, Ustilago maydis (maize smut)
Helminthosporium solani = assay: Further in vitro assay, isolates of Helminthosporium solani; type: cell-based; conditions: H. solani, Table 2(e)
Septoria tritici = assay: microbe, parasite or virus in culture; type: cell-based, Septoria tritici (wheat leaf blotch)
Rhynchosporium secalis = type: cell-based, Rhynchosporium secalis (barley leaf blotch)
[5] = read-out: % inhibition of growth in colony diameter
[6] = Rhizoctonia solani, read-out: % inhibition of growth in colony diameter
[7] = Aspergillus niger, read-out: % inhibition of growth in colony diameter

## CC(C)c1cc2c(o1)C(=O)c1ccccc1C2=O [(A)]
[1]
  fungicidal activity: inactive

## CCC1(CC)CC2=C(O1)C(=O)c1ccccc1C2=O [(B)]
[1]
  fungicidal activity: intermediate fungicidal activity

## c1ccc2[nH]cnc2c1 [Benzimidazole]
Fusarium graminearum; isolate JF18
  Sensitivity (R): R
[2]
  Sensitivity (R): R
Botrytis cinerea
  Sensitivity (S/R): R and S

## COC(=O)Nc1nc2ccccc2[nH]1 [Carbendazim, reference compound]
[3]; R-type isolate (first line)
  Sensitivity to Carbendazim: Sensitive
[3]; R-type isolate (second line)
  Sensitivity to Carbendazim: Resistant
[3]; W-type isolate (first line)
  Sensitivity to Carbendazim: Sensitive
[3]; W-type isolate (second line)
  Sensitivity to Carbendazim: Resistant
Pyricularia oryzae; [5]
  inhibition at 1 µg/mL: 14.7%
  inhibition at 4 µg/mL: 99.4%
Rhizoctonia solani; [6]
  inhibition at 1 µg/mL: 3.3%
  inhibition at 4 µg/mL: 81.2%

## CCCN(CCOc1c(Cl)cc(Cl)cc1Cl)C(=O)n1ccnc1 [Prochloraz, reference compound]
Aspergillus niger; Aspergillus niger, 1 mg/l, read-out: % inhibition of growth in colony diameter
  inhibition at 1 µg/mL: 97.1%

## CC(C)(C)C(O)C(Oc1ccc(Cl)cc1)n1cncn1 (stereo not drawn) [Triadimenol]
[4]
  Sensitivity of isolate (S/R): S and R

## CC1OC2=C(C(=O)C(=O)c3ccccc32)C1(C)C (stereo not drawn) [dunnione]
Fusarium graminearum; Fusarium graminearum
  anti-fungal activity (in words): some activity
Fusarium graminearum; Fusarium graminearum, read-out: Sensitivity ED50
  IC50: 20 µg/mL (≈ 82.6 µM)
Neurospora crassa
  anti-fungal activity (in words): Significant activity
Neurospora crassa; Neurospora crassa, read-out: ED50
  IC50: 2 µg/mL (≈ 8.26 µM)
14 day old seedlings
  phytotoxic effects: no noticeable phytotoxic effects
[4]
  fungicidal effect (in words): fungicidally effective
[2]; Oculimacula yallundae, read-out: Sensitivity ED50
  IC50: 17 µg/mL (≈ 70.2 µM)
[3]; Pseudocercosporella herpotrichoides
  fungicidal activity (in words): inconsistent
[3]; Table 2(d)
  cross-resistance with carbendazim: no evidence of cross-resistance
Pyricularia oryzae
  fungicidal activity (in words): active
Pyricularia oryzae; [5]
  inhibition at 4 µg/mL: 75%
  inhibition at 20 µg/mL: 99%
  inhibition at 100 µg/mL: 100%
Aspergillus niger
  fungicidal activity (in words): active
Aspergillus niger; [7]
  inhibition at 4 µg/mL: 30%
  inhibition at 20 µg/mL: 99%
  inhibition at 100 µg/mL: 100%
Fusarium sulphureum
  cross-resistance with thiabendazole: no evidence of cross-resistance
Botrytis cinerea
  anti-fungal activity (in words): some activity
Botrytis cinerea; Botrytis cinerea, read-out: Sensitivity ED50
  IC50: > 20 µg/mL
Ustilago maydis
  anti-fungal activity (in words): active
  level of activity compared with azole fungicides currently in use: similar, or better
Ustilago maydis; Mycosarcoma maydis, ATCC14826, read-out: ED50
  IC50: 3 µg/mL (≈ 12.4 µM)
Rhizoctonia solani
  fungicidal activity (in words): active
Rhizoctonia solani; [6]
  inhibition at 4 µg/mL: 37%
  inhibition at 20 µg/mL: 93%
  inhibition at 100 µg/mL: 100%
Helminthosporium solani
  cross-resistance with thiabendazole: no evidence of cross-resistance
Septoria tritici
  anti-fungal activity (in words): active
  level of activity compared with azole fungicides currently in use: similar, or better
Septoria tritici; Zymoseptoria tritici, read-out: Sensitivity MIC
  MIC: 5 µg/mL (≈ 20.6 µM)
Rhynchosporium secalis
  anti-fungal activity (in words): active
  level of activity compared with azole fungicides currently in use: similar, or better
